Article PMC2376925 (British Journal of Cancer, 2003)
Counter-ions that a name gives are not always drawn.

How the values were obtained:
[1] = Plasma pharmacokinetics of irinotecan, SN-38, SN-38G and APC (HPLC, noncompartmental); details: for change of AUC when irinotecan administered immediately after epirubicin: Course 1 vs Course 2, paired t-test; for AUC in Course 1 compared to Course 2, higher by: second patient with elevated bilirubin (1.5 times ULN), irinotecan 80 mg m^−2; for SN-38G AUCt: mean ±s.d., dose standardised to 100 mg irinotecan
Protocol: (§1) Atropine was administered if diarrhoea, abdominal cramping or other symptoms of early cholinergic syndrome occurred within 1 h of receiving irinotecan. […] Dexamethasone and a 5-HT3 antagonist were administered to all patients as standard premedications unless contraindicated.
(§2) Samples were centrifuged immediately at room temperature, and plasma was separated and stored in aliquots at −20°C until analysis.
Irinotecan, SN-38 and APC concentrations were determined using a high-performance liquid chromatography assay. […] The fluorescence detector was operated at an excitation wavelength of 372 nm, irinotecan and APC were monitored at an emission wavelength of 425 nm, while SN-38 and the internal standard were monitored at 535 nm. SN-38 glucuronide (SN-38G) concentrations were estimated as increases in SN-38 concentrations after incubation of plasma samples with β-glucuronidase.
(§3) Pharmacokinetic parameters were determined by noncompartmental methods using WinNonlin (Version 3.0, Pharsight Corp., Mountain View, CA, USA). […] Pharmacokinetic parameters were compared using the paired t-test. A probability of P<0.05 was considered significant. The program S-PLUS for Windows (Version 6) (Insightful Corp., Seattle, WA, USA) was used for statistical analysis.

clinical = details: for half-life: t1/2 (elimination half-life); for half-life / clearance: mean ±s.d.; for clearance: plasma, intravenous, CL (total body clearance)
Protocol: as §1, §2
Samples were added to C8 solid-phase extraction tubes and extracts were dried on an evaporator. […] The fluorescence detector was set at excitation 480 nm and emission 560 nm.
as §3

[2] = cited from earlier work; for AUC when given together with paclitaxel: attributed to vehicle Cremophor EL, ref Yamamoto et al, 1999; for AUC when given together with carboplatin: ref Okamoto et al, 1998
[3] = test system: patients with advanced solid tumours; details: triple combination, Day 1 every 3 weeks; normal total serum bilirubin
Protocol: as §1

[4] = parameters: method as in Vanhoefer et al, 2001; details: single-agent, weekly or every-3-week regimen; ref Vanhoefer et al, 2001; cited from earlier work
[5] = human, plasma, intravenous, 100 mg

Structure (SMILES): CCc1c2c(nc3ccc(OC(=O)N4CCC(NCCCCC(=O)O)CC4)cc13)-c1cc3c(c(=O)n1C2)COC(=O)[C@]3(O)CC [APC]
- change of AUC when irinotecan administered immediately after epirubicin [1]: increased significantly
- APC AUCt ([1]; human, in vivo, 100 mg): 725 ± 460 ng·h/mL
- AUC in Course 1 compared to Course 2, higher by [1]: > 60%

Structure (SMILES): COc1cccc2c1C(=O)c1c(O)c3c(c(O)c1C2=O)C[C@@](O)([C@@H](O)CO)C[C@@H]3O[C@H]1C[C@H](N)[C@@H](O)[C@H](C)O1 [Epi-ol, epirubicinol]
- Epi-ol AUCt (clinical; human, in vivo, 100 mg): 788 ± 482 ng·h/mL

Structure (SMILES): CCc1c2c(nc3ccc(O[C@@H]4O[C@H](C(=O)O)[C@@H](O)[C@H](O)[C@H]4O)cc13)-c1cc3c(c(=O)n1C2)COC(=O)[C@]3(O)CC [SN-38G, SN-38 glucuronide]
- change of AUC when irinotecan administered immediately after epirubicin [1]: increased significantly
- SN-38G AUCt ([1]; Irinotecan → epirubicin (Course 2)): 378 ± 223 ng·h/mL
- SN-38G AUCt ([1]; Irinotecan+epirubicin (Course 1)): 558 ± 480 ng·h/mL
- AUC in Course 1 compared to Course 2, higher by [1]: > 60%

Structure (SMILES): CCc1c2c(nc3ccc(O)cc13)-c1cc3c(c(=O)n1C2)COC(=O)[C@]3(O)CC [SN-38]
- SN-38 AUCt ([1]; human, in vivo): 102 ± 54 ng·h/mL
- SN-38 AUCt ([1]; human, in vivo, 100 mg): 78 ± 36 ng·h/mL
- AUC when given together with paclitaxel [2]: increased
- AUC when irinotecan is coadministered with doxorubicin ([2]; ref Dunphy et al, 2001): not increased
- AUC when given together with carboplatin [2]: lower

Structure (SMILES): COc1cccc2c1C(=O)c1c(O)c3c(c(O)c1C2=O)C[C@@](O)(C(=O)CO)C[C@@H]3O[C@H]1C[C@H](N)[C@@H](O)[C@H](C)O1 [epirubicin]
- Vd (apparent volume of distribution) (clinical; human, in vivo): 2563 ± 1122 L
- AUC(0-inf) (clinical; human, in vivo, 100 mg): 910 ± 368 ng·h/mL
- AUC(0-t) (clinical; human, in vivo, 100 mg): 723 ± 296 ng·h/mL
- Vd (clinical; human, in vivo, Vd (apparent volume of distribution)): 3480 ± 1940 L
- half-life (clinical; human, in vivo, Irinotecan → epirubicin (Course 2)): 16 ± 7.8 h
- half-life (clinical; human, in vivo, Irinotecan+epirubicin (Course 1)): 23.1 ± 10.8 h
- clearance (clinical; human, Irinotecan → epirubicin (Course 2)): 2080 mL/min
- clearance (clinical; human, Irinotecan+epirubicin (Course 1)): 1830 mL/min
- effect of sequence of drug administration on pharmacokinetic parameters (clinical; in vivo): not affected by the sequence of drug administration

Structure (SMILES): CCc1c2c(nc3ccc(OC(=O)N4CCC(N5CCCCC5)CC4)cc13)-c1cc3c(c(=O)n1C2)COC(=O)[C@]3(O)CC [irinotecan, Irinotecan hydrochloride]
- AUC(0-inf) [1, 5]: 2960 ± 1020 ng·h/mL
- AUC(0-t) [1, 5]: 2870 ± 916 ng·h/mL
- recommended phase II dose (MTD) [3]: 110 mg m^−2
- frequency of grade 3/4 late diarrhoea [4]: > 20%
- AUC when given together with paclitaxel [2]: increased
- share of irinotecan and its metabolites excreted via the biliary tract [2]: Over 60%
- doses up to which pharmacokinetics is linear ([2]; ref Mathijssen et al, 2001): up to 180 mg m^−2
- AUC when given together with carboplatin [2]: lower
- share of the administered irinotecan dose converted to SN-38 ([2]; ref Slatter et al, 2000): less than 10%
